Values joined by “and” are separate entries in the source; they are usually repeats but may differ in a detail not shown here. Identical values can stand only once.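 Five compound concentrations were applied to cells in 96-well plates for 48 hours; endpoints were derived by simple linear interpolation of the resulting dose-response curve. Here, GI50 denotes the concentration required for 50% inhibition of growth. Definition used: TGI = concentration required for complete inhibition of growth.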 Bounds are passed on as bounds.

Among the test systems are HT29 colon; SK-MEL-5 melanoma; M14 melanoma; OVCAR-4 ovarian; A498 renal; 786-0 renal; UACC-257 melanoma; CAKI-1 renal; DU-145 prostate; HCC-2998 colon.
Common to all, as to assay: inhibition of tumour cell growth, NCI panel, 48 h

In the case of `CC(C)(C)[Si](C)(C)OC1[C@@H](O[Si](C)(C)C(C)(C)C)[C@@H](CNC(=O)NC(=O)NC(=O)CCl)O[C@H]1n1cnc2c(NC(=O)Nc3ccccc3)ncnc21` (stereo not given in full), the GI50 was 1.43 µM in the test with HT29 colon; 8.21 µM in the test on SK-MEL-5 melanoma; 5.34 µM in the test with M14 melanoma; 3.31 µM with OVCAR-4 ovarian; 6.46 µM in the test with A498 renal; 1.3 µM with 786-0 renal. Further, the GI50 was 5.64 µM in the test on UACC-257 melanoma, 2.2 µM with CAKI-1 renal, 7.88 µM in the test with DU-145 prostate and 8.74 µM in the test on HCC-2998 colon. The TGI with HT29 colon amounted to 3.67 µM; in the test with SK-MEL-5 melanoma it was 15 µM; in the test with M14 melanoma it was 11.8 µM; in the test with OVCAR-4 ovarian, 10.5 µM; in the test on A498 renal, 13.3 µM; in the test with 786-0 renal it was 4.76 µM. The TGI was found to be 13.2 µM in the test with UACC-257 melanoma, 9.42 µM in the test with CAKI-1 renal, 16.4 µM in the test with DU-145 prostate and 18.6 µM in the test on HCC-2998 colon.

For the compound `O=C(NCCCl)NCCN1c2nc3ccccc3cc2Sc2cc3ccccc3nc21`, the GI50 with HT29 colon is 1.11 µM; with SK-MEL-5 melanoma, 0.168 µM; in the test on M14 melanoma it was 1.77 µM; in the test on OVCAR-4 ovarian, 0.9 µM; in the test on A498 renal, 4.58 µM; in the test with 786-0 renal, 1.55 µM. Also, the GI50 with UACC-257 melanoma is 1.37 µM; in the test on CAKI-1 renal, 14.7 µM; in the test on DU-145 prostate, 3.28 µM; with HCC-2998 colon it was 1.68 µM. Also, the TGI was 8.89 µM in the test with HT29 colon; 1.25 µM with SK-MEL-5 melanoma; 6.73 µM in the test with M14 melanoma; over 23.4 µM in the test on OVCAR-4 ovarian; 24.7 µM in the test with A498 renal; 4.89 µM with 786-0 renal. Further, the TGI was 6.55 µM in the test with UACC-257 melanoma, over 55.3 µM in the test on CAKI-1 renal, over 39.4 µM in the test on DU-145 prostate and 5.09 µM in the test on HCC-2998 colon.

For the compound `O=C(/C=C\c1cc(Br)ccc1O)/C=C/c1cc(Br)ccc1O`, the GI50 in the test on HT29 colon is 0.451 µM; with SK-MEL-5 melanoma, 0.426 µM; in the test with M14 melanoma, 0.651 µM; in the test with OVCAR-4 ovarian it was 1.21 µM; with A498 renal it was 1.65 µM; in the test with 786-0 renal it was 1.23 µM. Moreover, the GI50 was 1.54 µM with UACC-257 melanoma, 0.938 µM in the test on CAKI-1 renal, 0.814 µM in the test with DU-145 prostate and 1.51 µM in the test on HCC-2998 colon. Further, the TGI in the test with HT29 colon turned out to be 1.84 µM; with SK-MEL-5 melanoma, 1.66 µM; in the test with M14 melanoma, 3.08 µM; with OVCAR-4 ovarian, 6.87 µM; in the test with A498 renal, 3.26 µM; in the test with 786-0 renal it was 2.55 µM. The TGI stood at 4.09 µM with UACC-257 melanoma, 3.33 µM in the test on CAKI-1 renal, 2.17 µM with DU-145 prostate and 2.89 µM in the test with HCC-2998 colon.

As for `[N-]=[N+]=NCCCn1c2c(c3ccc([N+](=O)[O-])cc3c1=O)C(=O)c1cc(I)ccc1-2`, the GI50 in the test with HT29 colon was 10.7 µM; in the test on SK-MEL-5 melanoma it was 3.77 µM; in the test on M14 melanoma, 3.29 µM; with OVCAR-4 ovarian, 60 µM; in the test with A498 renal, 6.52 µM; in the test with 786-0 renal, 3.17 µM. The GI50 in the test on UACC-257 melanoma was 26.7 µM; in the test with CAKI-1 renal it was 9.38 µM; with DU-145 prostate it was 1.78 µM; in the test on HCC-2998 colon, 11.7 µM. For the same compound, the TGI was over 100 µM with HT29 colon; 15.5 µM with SK-MEL-5 melanoma; 22.4 µM in the test with M14 melanoma; over 100 µM in the test with OVCAR-4 ovarian; 28.5 µM in the test with A498 renal; 16 µM in the test with 786-0 renal. The TGI was over 100 µM with UACC-257 melanoma, over 100 µM in the test on CAKI-1 renal, 6.95 µM in the test on DU-145 prostate and 59.3 µM with HCC-2998 colon.

Take `O=C(CN1CCN(CCN2C(=O)c3cccc4cccc(c34)C2=O)CC1)Nc1ccc2ncsc2c1`: the GI50 is 3.61 µM with HT29 colon; 3.7 µM in the test with SK-MEL-5 melanoma; 8.63 µM in the test on M14 melanoma; 11.3 µM in the test with OVCAR-4 ovarian; 22.3 µM in the test on A498 renal; 5.82 µM in the test on 786-0 renal. In addition, the GI50 in the test with UACC-257 melanoma was 5.65 µM; in the test on CAKI-1 renal, 4.91 µM; in the test with DU-145 prostate it was 5.92 µM; in the test with HCC-2998 colon it was 5.84 µM. In addition, the TGI in the test with HT29 colon is 16.5 µM; in the test with SK-MEL-5 melanoma, 16 µM; with M14 melanoma, 22.2 µM; in the test on OVCAR-4 ovarian, 26.5 µM; in the test on A498 renal, over 100 µM; in the test with 786-0 renal, 20.8 µM. For the same compound, the TGI was 23.7 µM with UACC-257 melanoma, over 100 µM in the test with CAKI-1 renal, 19.6 µM in the test on DU-145 prostate and over 100 µM with HCC-2998 colon.

`COc1ccc(N=N/C(=N\NC(=O)c2cc(Br)ccc2O)c2ccc(N(CCC#N)CCC#N)cc2OC)cc1`: the GI50 was 40.9 µg/mL in the test on HT29 colon; 56.1 µg/mL with SK-MEL-5 melanoma; 83.7 µg/mL in the test with M14 melanoma; 28.5 µg/mL with OVCAR-4 ovarian; over 150 µg/mL with A498 renal; 64.6 µg/mL with 786-0 renal. Further, the GI50 is over 150 µg/mL in the test on UACC-257 melanoma, 53.3 µg/mL with CAKI-1 renal, 82 µg/mL in the test on DU-145 prostate and 28.7 µg/mL with HCC-2998 colon. Moreover, the TGI in the test on HT29 colon is 118 µg/mL; with SK-MEL-5 melanoma, over 150 µg/mL; with M14 melanoma, over 150 µg/mL; in the test with OVCAR-4 ovarian, 76 µg/mL; in the test on A498 renal it was over 150 µg/mL; in the test on 786-0 renal it was over 150 µg/mL. For the same compound, the TGI in the test on UACC-257 melanoma was over 150 µg/mL; in the test on CAKI-1 renal, over 150 µg/mL; with DU-145 prostate it was over 150 µg/mL; in the test with HCC-2998 colon it was 66.5 µg/mL.

Regarding `CC(=O)N(C)c1cc(NCc2ccccc2)ccc1OCc1ccccc1`, the TGI is 43 µM in the test with HT29 colon; 33.8 µM in the test with SK-MEL-5 melanoma; 50.5 µM with M14 melanoma; 36.6 µM with OVCAR-4 ovarian; 30.8 µM in the test on A498 renal; 76.6 µM in the test on 786-0 renal. For the same compound, the TGI in the test with UACC-257 melanoma is 31.1 µM; in the test with CAKI-1 renal, 38.6 µM; with DU-145 prostate, 32.7 µM; with HCC-2998 colon it was 35 µM.

In the case of `CC(C)n1nc(C#Cc2cccc(O)c2)c2c(N)ncnc21`, the GI50 in the test on HT29 colon is 2.04 µM and 1.74 µM; with SK-MEL-5 melanoma, 1.72 µM and 0.887 µM; with M14 melanoma, 0.693 µM and 0.397 µM; in the test with OVCAR-4 ovarian it was 1.34 µM and 1.74 µM; in the test with A498 renal it was 1.56 µM and 1.71 µM; with 786-0 renal, 4.7 µM and 3.37 µM. Besides, the GI50 was 1.22 µM and 1.63 µM in the test on UACC-257 melanoma; 1.66 µM and 1.59 µM in the test with CAKI-1 renal; 1.67 µM and 1.51 µM with DU-145 prostate; 2.4 µM and 4.46 µM in the test on HCC-2998 colon. The TGI in the test on HT29 colon was 50 µM and 19.4 µM; in the test on SK-MEL-5 melanoma, 6.39 µM and 2.67 µM; with M14 melanoma, 4.68 µM and 2.42 µM; in the test with OVCAR-4 ovarian it was 7.4 µM and 6.17 µM; with A498 renal, 6.5 µM and 4.29 µM; in the test on 786-0 renal, 15.3 µM and 11.7 µM. Also, the TGI with UACC-257 melanoma is 6.17 µM and 4.95 µM; with CAKI-1 renal it was 6.06 µM and 6.87 µM; in the test on DU-145 prostate, 14.5 µM and 11.1 µM; in the test on HCC-2998 colon, 27.4 µM and 21.5 µM.

Values taken from PubChem BioAssay (NCI).
